Data from patent US12251373B2, “Compounds and methods of treating retinal degeneration” (CASE WESTERN RESERVE UNIVERSITY, priority 2017, dated 2025).

Tests used:
mouse P23H opsin = target: T1, mouse P23H opsin (Mus musculus, UniProt P15409, P23H); assay: Immunostain and image-based high-content analysis of P23H mutant opsin in NIH3T3 cells; assay type: cell-based; details: for Immunostaining HCS MEM-Total ratio Max (fit) / EC50: ratio of P23H rod opsin fluorescence on plasma membrane to whole cell; for EC50: 1440 min, read-out: Immunostaining HCS MEM-Total ratio EC50; for effect on cell number: NIH3T3 cells, YC-001 up to 40 μM, 9-cis-retinal higher than 10 μM; for P23H opsin on the plasma membrane: dose-dependent, FIG. 2
T1 construct: expressed in transfected cells
Source text: Three NIH3T3 stable cell lines, NIH3T3-(WT-opsin/GFP), NIH3T3-(P23H-opsin/GFP), and NIH3T3-(GFP) were previously generated which stably express mouse WT opsin and GFP; P23H opsin and GFP; and only GFP, respectively. GFP is expressed separately from opsin in these cell lines. NIH3T3 cells were from ATCC. DNA constructs for generating these stable cell lines were confirmed by Sanger sequencing. Expression of GFP was confirmed by green fluorescence imaging, and expression of P23H and WT opsin were confirmed by immunoblots.
To characterize the effect of active compounds on the localization of P23H mutant opsin in mammalian cells, an image-based assay was used with cells immunostained for WT or P23H mutant opsin protein. Briefly, NIH3T3-(P23H-opsin/GFP) or NIH3T3-(WT-opsin/GFP) cells were seeded at 5,000 cells per well in a 384-well cell-carrier plate (PerkinElmer) and incubated at 37° C. with 5% CO2 for 2 h. Cells were treated with compounds as described for the β-Gal fragment complementation assay and incubated in assay medium for 24 h. The assay medium then was aspirated, and cells were fixed with 4% paraformaldehyde at 20 μL per well for 20 min at RT. Cells were immunostained in one of two ways: cell membranes were either permeabilized with 0.1% Triton X-100 for 15 min or left intact and then were incubated with 10% goat serum (Life Technologies). To detect opsin on the cell plasma membrane only, intact cells were immunostained with 20 μL per well of 20 μg mL^−1 B6-30 anti-rhodopsin antibody that recognizes the N-terminal epitope on the extracellular side of rhodopsin. To detect total opsin, cells were permeabilized with Triton X-100 and immunostained with 50 μg mL^−1 1D4 anti-rhodopsin antibody specific for the C-terminal epitope on the intracellular side of rhodopsin. Opsin immunostaining was visualized by incubating cells with 5 μg mL^−1 Cy3-conjugated goat anti-mouse IgG antibody. Three washes with phosphate-buffered saline (PBS: 10 mM Na2HPO4, 1.8 mM KH2PO4, pH 7.4, 137 mM NaCl, and 2.7 mM KCl) were performed between each step of incubation with antibody. In the last wash with PBS, DAPI was added to each well at 300 nM. Fluorescence images were obtained with the Operetta High Content Imaging System (PerkinElmer) using a 20× long objective. Five fields were taken of each well for cell images using three channels for fluorescence: GFP (100 ms), Cy3 (300 ms), and DAPI (50 ms). Images were analyzed with Acapella software from the Columbus data storage and analysis system (PerkinElmer). For cells immunostained with opsin on the non-permeabilized cell membrane only, an average of total fluorescence intensity of Cy3 per cell was used to quantify opsin in each well of the 384-well plate. For cells immunostained with opsin in permeabilized whole cells, an average ratio of Cy3 intensity on the cell plasma membrane (PM) to that of the entire cell (opsin ratio PM-to-total) was calculated for each well of a 384-well plate to quantify opsin transport to the plasma membrane. The plasma membrane was defined within ±5% of the cell border.

bovine opsin = target: T2, bovine opsin (Bos taurus, UniProt P02699); assay: Ligand-opsin binding by Trp fluorescence quenching in ROS disc membranes; details: for EC50: opsin in disc membranes, read-out: EC50 of Trp fluorescence quenching at 330 nm
T2 construct: ROS membranes were isolated from bovine retinas under dim red light; from tissue; host or cells: bovine retina rod outer segment (ROS) membranes, bleached with hydroxylamine
T2 sequence (P02699 whole entry): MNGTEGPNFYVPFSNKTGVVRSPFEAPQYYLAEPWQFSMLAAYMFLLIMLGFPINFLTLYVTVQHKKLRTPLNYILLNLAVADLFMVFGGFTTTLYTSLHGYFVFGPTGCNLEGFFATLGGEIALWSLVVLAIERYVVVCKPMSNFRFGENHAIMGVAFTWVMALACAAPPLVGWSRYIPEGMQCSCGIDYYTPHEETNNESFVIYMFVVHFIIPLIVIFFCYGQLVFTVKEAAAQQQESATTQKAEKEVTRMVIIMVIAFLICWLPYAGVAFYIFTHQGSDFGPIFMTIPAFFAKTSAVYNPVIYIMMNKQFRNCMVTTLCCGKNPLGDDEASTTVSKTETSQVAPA
Method: ROS membranes were isolated from bovine retinas under dim red light. To remove membrane associated proteins, ROS membranes were washed with a hypotonic buffer composed of 5 mM bis-tris propane (BTP) and 1 mM EDTA, pH 7.5, followed by gentle homogenization with subsequent centrifugation at 25,000 g for 30 min. This procedure was repeated four times. The final membrane pellet was suspended in 10 mM sodium phosphate buffer, pH 7.0, and 50 mM hydroxylamine to a 3 mg mL^−1 concentration of rhodopsin, placed on ice and illuminated with a 150 Watt bulb for 30 min. Membranes were pelleted by centrifugation at 16,000 g for 5 min and then washed four times with 10 mM sodium phosphate buffer, pH 7.0, and 2% bovine serum albumin followed by 4 washes with 10 mM sodium phosphate buffer, pH 7.0, and 2 washes with 20 mM BTP, pH 7.5, and 100 mM NaCl. The concentration of opsin was measured with a UV-visible spectrophotometer and quantified using the absorption coefficient ε280 nm=81,200 M^−1 cm^−1.
Emission spectra were recorded with a Perkin Elmer L55 Luminescence Spectrophotometer at 20° C. between 300 and 450 nm after excitation at 295 nm, with excitation and emission slit bands set at 5 and 10 nm, respectively. Changes in Trp fluorescence (ΔF/F0; where ΔF is the difference between the initial Trp fluorescence recorded at 330 nm (F0) and Trp fluorescence recorded at 330 nm at a specified YC-001 concentration) were plotted as a function of the ligand concentration. Binding curves were fitted by the Hill function using Origin software for each compound and the EC50 was calculated. All experimental data were corrected for background and self-absorption of excitation and emission light (inner filter effect).

| Immunostaining HCS MEM-Total ratio Max (fit) (mouse P23H opsin) | EC50 (mouse P23H opsin) | effect on Trp fluorescence (bovine opsin; FIG. 3G) | SMILES | effect on cell number (mouse P23H opsin) | P23H opsin on the plasma membrane (mouse P23H opsin) | EC50 (bovine opsin) | ratio of P23H opsin stain in the ER region to total P23H opsin staining (mouse P23H opsin; FIG. 2M,N) |
| --- | --- | --- | --- | --- | --- | --- | --- |
| 0.070 | 0.38 µM | didn't affect Trp fluorescence | O=C(CCCCCN1C(=O)c2cccc3cccc(c23)C1=O)NO [Scriptaid, reference compound] |  |  |  |  |
| 0.019 | 0.377 µM |  | CC1=C(/C=C/C(C)=C\C=C\C(C)=C\C=O)C(C)(C)CCC1 [9-cis-retinal, reference compound] | killed most cells | increased | 1.2 ± 0.1 µM |  |

| SMILES | Immunostaining HCS MEM-Total ratio Max (fit) (mouse P23H opsin) | EC50 (mouse P23H opsin) | effect on Trp fluorescence (bovine opsin; FIG. 3G) | effect on cell number (mouse P23H opsin) | P23H opsin on the plasma membrane (mouse P23H opsin) | EC50 (bovine opsin) | ratio of P23H opsin stain in the ER region to total P23H opsin staining (mouse P23H opsin; FIG. 2M,N) |
| --- | --- | --- | --- | --- | --- | --- | --- |
| O=C1OCC(c2ccc(Cl)s2)=C1c1cccs1 [YC-001] | 0.030 | 2.75 µM |  | did not affect cell number | increased | 0.98 ± 0.05 µM | decreased |
